{
  "source": "patent US12678433B2",
  "about": "“Compounds for treatment of hemolysis-and inflammasome-associated diseases” (New York Blood Center, Inc., priority 2020, dated 2026)",
  "key": {"[1]": {"test_system": "purified naïve B cells from healthy donors", "experimental": "Hemin and RBC lysate preparation. Hemin, dissolved in dimethyl sulfoxide (DMSO), stock concentration 10 mM, was diluted to 100 μM with serum-free RPMI 1640 culture medium just prior to addition to B cell cultures. For short-term experiments lasting less than 24 hr, a final concentration of 10 μM hemin was used whereas for longer-term culture up to 7 days, 2.5-5 μM final heme concentration was used. RBC lysates were freshly prepared (containing ~80 g/L hemoglobin) for same day use. Briefly, 4 ml whole blood from healthy donors was passed through Acrodisc WBC syringe filter (Pall Corporation) to remove white blood cells followed by two washes with Dulbecco's Phosphate Buffered Saline (D-PBS) (200×g, 10 min at room temperature with no brake) for removal of platelets. The RBC pellet was lysed with 3 times volume of distilled water for 10 min at 37° C. Cellular debris was pelleted by centrifugation at 4000×g for 10 min at 4° C. The RBC lysate was transferred to a new tube and 1/9 volume of 10×D-PBS added.\nCell isolation and culture. Peripheral blood mononuclear cells (PBMCs) were prepared by Ficoll (GE Healthcare) density gradient centrifugation from healthy donor leukopak products as well as from sickle peripheral blood apheresis waste bags. Human naïve and memory B cells were isolated from PBMCs using a human memory B Cell Isolation Kit (Miltenyi Biotec) by collecting CD27− B cells (naïve B cells) and CD27+ B cell (memory B cells) separately. […] RPMI 1640 culture medium was used for all cell culture experiments (supplemented with 10% FBS, 100-unit penicillin-streptomycin, […], 1 mM sodium pyruvate, all from Thermo Fisher Scientific). Purified B cells were stained with CFSE (Cat #: C34554, Thermo Fisher Scientific) and cultured in U-bottom 96 well plates (2.5×10^5/well/200 μl culture medium) in the presence of goat anti-human IgA+IgG+IgM (H+L) F(ab′)2 fragment (2.5 μg/ml, Jackson ImmunoResearch), CD154 (10 ng/ml, R&D Systems) and CpG (ODN 7909, 1 nM, Cat #: tlrl-2006-1) without IL-2 for analysis of only CD38+ plasmablast differentiation or with IL-2 (5 ng/ml, Cat #:1081-IL-020, R&D Systems) in experiments to detect CD27^hiBlimp-1+ plasma cells. In addition, heme and various inhibitors were added to the cultures at the start point and incubated for 7 days.\n(§1) Cultured cells: stimulated B cells were transferred into U bottom 96 well plate and washed with 200 μl MACS buffer (D-PBS containing 0.5% BSA and 2 mM EDTA) at 300×g for 5 min at 4° C. After one wash, cells were stained for surface expression of CD19, CD38, CD27 using 25 μl staining buffer (anti-CD19, CD38, CD27 antibodies, diluted 200 fold with MACS buffer) for 30 min at 4° C. After one wash with 200 μl MACS buffer, cells were resuspended in 100 μl D-PBS and 50 μl Fixable Viability Dye eFluor™ 780 (1000 fold diluted with D-PBS, Thermo Fisher Scientific) was added for dead cell detection for 5 min at room temperature. Cells were washed one time with MACS buffer and 100 μl D-DPS was added just before flow cytometric analysis (LSRFortessa flow cytometer, BD Bioscience). For intracellular staining of IgG, Blimp-1 and HO-1, samples were first washed with 200 μl MACS buffer before addition of 150 μl Fixation/Permeabilization buffer (Thermo Fisher Scientific) for 45 min at 4° C. After fixation, samples were washed twice with 1× Permeabilization buffer (Thermo Fisher Scientific) and stained with 25 μl intracellular staining buffer (anti-human IgG, DOCK8, Blimp-1, HO-1 antibodies, diluted 200 fold with 1× Permeabilization buffer) for 45 min at 4° C., after which the cells were washed twice with Permeabilization buffer and 100p D-DPS was added prior to flow cytometric analysis."}, "Bach2": {"test_system": "Bach2", "test": "Bach2 levels in human B cells", "type": "cell-based", "conditions": "in the presence of heme"}, "HO-1": {"test_system": "HO-1", "test": "HO-1 expression in stimulated B cells", "type": "cell-based, human", "conditions": "stimulated B cells treated with heme 2.5 or 5 μM", "source_text": "HO-1 is a key enzyme for heme degradation with multiple biologic activities attributed to its enzymatic byproducts. We analyzed HO-1 expression levels in human B cells before and after stimulation with our polyclonal B cell activation cocktail. […] We also found higher HO-1 levels in DOCK8^hi plasma cells (FIG. 8B)."}, "[2]": {"test_system": "naïve B cells from Allo(−) and Allo(+) SCD patients", "test": "7-day stimulated naïve B cell culture from SCD patients", "type": "cell-based, human", "conditions": "for inhibition of plasmablast B cell differentiation: heme 5 μM", "experimental": "Human samples. All studies were approved by the institutional Review Boards of the New York Blood Center (NYBC) and Montefiore Health Center. […] The blood samples from SCD patients were processed within 18 hours after collection. For circulating DOCK8 expression studies in healthy controls, peripheral blood samples from de-identified, race-matched healthy donors were used. Leukocyte enriched products from de-identified healthy donors were used for purification of B cells for in vitro culture studies.\nCell isolation and culture. Peripheral blood mononuclear cells (PBMCs) were prepared by Ficoll (GE Healthcare) density gradient centrifugation from healthy donor leukopak products as well as from sickle peripheral blood apheresis waste bags. Human naïve and memory B cells were isolated from PBMCs using a human memory B Cell Isolation Kit (Miltenyi Biotec) by collecting CD27− B cells (naïve B cells) and CD27+ B cell (memory B cells) separately. […] In addition, heme and various inhibitors were added to the cultures at the start point and incubated for 7 days.\nas §1"}, "[3]": {"test_system": "splenic B cells from C57BL/6J mice", "test": "Mouse B cell differentiation in vitro", "type": "cell-based", "conditions": "7 days, hemin 2.5 or 5 μM, different doses of quinine"}, "[4]": {"conditions": "HD naïve B cells, 7 days, highest heme concentration tested (5 μM)"}},
  "note": "Like-named read-outs stand apart in the source and are kept apart here.",
  "data": [
    {"smiles": "C=CC1=C(C)c2cc3[n-]c(cc4[n-]c(cc5nc(cc1n2)C(C)=C5C=C)c(C)c4CCC(=O)O)c(CCC(=O)O)c3C.[Fe+2]", "note": "[heme, iron(III) complex of protoporphyrin IX]", "values": [
      {"measurement": "effect on B cell proliferation", "setting": "[1]; 2.5 μM heme", "value": "minor inhibition"},
      {"measurement": "effect on differentiation of naïve B cells into plasmablasts", "setting": "[1]; 2.5 μM heme", "value": "robust inhibitory effect"},
      {"measurement": "B cell class switch recombination (percent IgG+ B cells)", "setting": "[1]; 2.5 or 5 μM hemin", "value": "not affected"},
      {"measurement": "inhibition of B cell proliferation", "setting": "[1]; [4]", "value": "6.8%±1.3%"},
      {"measurement": "inhibition of plasmablast cell differentiation", "setting": "[1]; [4]", "value": "52.7%±8.0%"},
      {"measurement": "effect on B cell proliferation", "setting": "[1]; heme 2.5 μM, SnPPIX 2.5 μM, alone or together", "value": "little to no effect"},
      {"measurement": "CD27hiBlimp-1+ plasma cell differentiation", "setting": "[1]; heme 2.5 or 5 μM, 7 days", "value": "inhibition"},
      {"measurement": "percentage of viable B cells", "setting": "[1]; highest dose of heme used", "value": "high"},
      {"measurement": "Bach2 levels", "setting": "Bach2", "value": "no significant change"},
      {"measurement": "HO-1 expression", "setting": "HO-1", "value": "further induced"},
      {"measurement": "effect on B cell proliferation, Allo(−) versus Allo(+) patients", "setting": "[2]; 2.5 or 5 μM hemin", "value": "did not differ"},
      {"measurement": "DOCK8hi B cells and CD27hiBlimp-1+ plasma cell differentiation", "setting": "[2]; Allo(+) SCD patients", "value": "not"},
      {"measurement": "inhibition of plasmablast B cell differentiation", "setting": "[2]; Allo(+) SCD patients", "value": "16%±9.7%"},
      {"measurement": "DOCK8hi B cells and CD27hiBlimp-1+ plasma cell differentiation", "setting": "[2]; Allo(−) SCD patients", "value": "inhibited"},
      {"measurement": "inhibition of plasmablast B cell differentiation", "setting": "[2]; Allo(−) SCD patients", "value": "58.6%±7.3%"},
      {"measurement": "mouse plasma cell differentiation", "setting": "[3]", "value": "did not inhibit"}
    ]}
  ]
}
